Data from the supplement of paper PMC10307832.

Experiments:
Test in all cases: relative viability (nuclei count vs DMSO), 5 days (fraction); higher = more cells survive
Salubrinal + Trametinib = compound: O=C(/C=C/c1ccccc1)NC(NC(=S)Nc1cccc2cccnc12)C(Cl)(Cl)Cl [Salubrinal] + CC(=O)Nc1cccc(-n2c(=O)n(C3CC3)c(=O)c3c(Nc4ccc(I)cc4F)n(C)c(=O)c(C)c32)c1 [Trametinib] (partner 0.02 µM)
Summary of the method: (§1)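 Five library-drug doses in √10 steps were combined with a fixed anchor-drug dose, or a single drug was given alone, by pin tool to lung cancer cell lines in 1536-well plates the day after seeding. Nuclei were stained and counted after 5 days. Relative viability is the nuclei count in treated wells over that in vehicle wells, taken as the median of duplicate plates.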

[1] = compound: Cc1ccc2nc(NCCN)c3ncc(C)n3c2c1 + Nc1nc2[nH]cc(CCc3ccc(C(=O)N[C@@H](CCC(=O)O)C(=O)O)cc3)c2c(=O)[nH]1 [Pemetrexed] (partner 0.2 µM)
Summary of the method: as §1

Salubrinal + Pemetrexed = compound: O=C(/C=C/c1ccccc1)NC(NC(=S)Nc1cccc2cccnc12)C(Cl)(Cl)Cl [Salubrinal] + Nc1nc2[nH]cc(CCc3ccc(C(=O)N[C@@H](CCC(=O)O)C(=O)O)cc3)c2c(=O)[nH]1 [Pemetrexed] (partner 0.2 µM)
Summary of the method: as §1

Salubrinal + Foretinib = compound: O=C(/C=C/c1ccccc1)NC(NC(=S)Nc1cccc2cccnc12)C(Cl)(Cl)Cl [Salubrinal] + COc1cc2c(Oc3ccc(NC(=O)C4(C(=O)Nc5ccc(F)cc5)CC4)cc3F)ccnc2cc1OCCCN1CCOCC1 [Foretinib] (partner 0.25 µM)
Summary of the method: as §1

Cell Line	relative viability (Salubrinal + Trametinib; first compound 0.08 µM)	relative viability (Salubrinal + Trametinib; first compound 0.253 µM)	relative viability (Salubrinal + Trametinib; first compound 0.8 µM)	relative viability (Salubrinal + Trametinib; first compound 2.53 µM)	relative viability (Salubrinal + Trametinib; first compound 8 µM)	relative viability ([1]; first compound 0.04 µM)	relative viability ([1]; first compound 0.1265 µM)	relative viability ([1]; first compound 0.4 µM)	relative viability ([1]; first compound 1.265 µM)	relative viability ([1]; first compound 4 µM)	relative viability (Salubrinal + Pemetrexed; first compound 0.08 µM)	relative viability (Salubrinal + Pemetrexed; first compound 0.253 µM)	relative viability (Salubrinal + Pemetrexed; first compound 0.8 µM)	relative viability (Salubrinal + Pemetrexed; first compound 2.53 µM)	relative viability (Salubrinal + Pemetrexed; first compound 8 µM)	relative viability (Salubrinal + Foretinib; first compound 0.08 µM)	relative viability (Salubrinal + Foretinib; first compound 0.253 µM)	relative viability (Salubrinal + Foretinib; first compound 0.8 µM)	relative viability (Salubrinal + Foretinib; first compound 2.53 µM)	relative viability (Salubrinal + Foretinib; first compound 8 µM)
EKVX	0.332	0.47	0.565	0.303	0.358	0.394	0.404	0.387	0.36	0.313	0.411	0.361	0.444	0.385	0.325	0.755	0.776	0.82	0.714	0.792
NCI-H1944	0.451	0.448	0.403	0.399	0.374	0.687	0.586	0.582	0.555	0.587	0.607	0.669	0.797	0.752	0.789	0.871	0.987	0.885	0.913	0.904
EPLC-272H	0.305	0.298	0.298	0.314	0.298	0.278	0.358	0.488	0.281	0.414	0.255	–	0.363	0.342	0.294	0.853	0.655	0.65	0.64	0.519
NCI-H1395	1.15	1.15	1.18	0.972	1.02	0.881	0.995	0.855	0.697	0.56	0.96	1.09	1.03	0.984	0.718	0.993	1.1	0.938	0.92	1.08
NCI-H2126	0.592	0.579	0.544	0.576	0.513	0.851	0.699	0.659	0.708	0.59	0.676	0.683	0.747	0.708	0.626	1.51	1.13	1.1	1.25	1.11
LXF-289	0.747	0.59	0.7	0.702	0.681	0.905	0.876	0.87	0.865	0.933	1.06	0.891	0.988	0.851	0.851	1.12	0.909	1.01	0.963	0.925
NCI-H2009	0.345	0.262	0.271	0.287	0.222	1.02	0.985	0.966	0.951	0.926	1.08	0.928	1.08	1.02	0.965	1.28	1.2	1.27	1.22	1.24
SK-MES-1	0.634	0.526	0.512	0.561	0.525	1.04	0.903	0.9	1.05	0.92	0.993	0.784	1.11	0.896	0.914	1.08	0.85	1.04	1.12	0.713
NCI-H2405	0.653	0.625	0.594	0.605	0.557	1.17	1.01	1	0.905	0.798	1.01	1.16	1.17	1.05	1.07	1.06	1.05	1.05	1.05	1.01
NCI-H1755	0.847	0.803	0.829	0.765	0.716	0.446	0.408	0.411	0.437	0.456	0.379	0.513	0.401	0.638	0.395	0.95	0.928	0.897	0.911	0.937
HCC-78	0.869	0.692	0.652	0.791	0.686	0.935	0.791	0.904	0.839	0.922	0.928	0.837	0.971	0.918	0.899	0.597	0.561	0.584	0.649	0.551
LOU-NH91	0.728	0.822	0.788	0.824	0.757	0.411	0.344	0.361	0.465	0.495	0.708	0.368	0.5	0.343	0.371	0.948	1.02	0.957	0.921	0.99
NCI-H3122	0.259	0.239	0.282	0.226	0.226	0.199	0.192	0.192	0.218	0.2	0.198	0.181	0.204	0.198	0.195	1.07	0.924	1.03	0.986	0.964
HCC-827	0.586	0.544	0.515	0.5	0.548	0.261	0.242	0.273	0.24	0.266	0.503	0.276	0.278	0.227	0.245	1.02	1.02	1.07	0.956	1.09
SK-LU-1	0.463	0.468	0.561	0.445	0.447	0.979	0.903	0.955	0.984	0.981	0.994	0.721	1.02	0.886	0.94	0.947	0.898	0.97	0.817	0.775
NCI-H1975	0.281	0.309	0.36	0.376	0.312	0.309	0.29	0.3	0.313	0.324	0.321	0.283	0.337	0.318	0.28	1.05	0.86	1	0.944	0.923
